The values that follow come from patent US11284615B2, “Cryopreservation using sucralose” (East Carolina University, priority 2015, dated 2022).

In data set [1] the test system is red blood cells. Put plainly: Percent hemolysis of red blood cells frozen with sucralose and thawed. The class given is cell-based, sheep. Particulars: for protective effect compared with 20% glycerol solution: equivalent volume of 20% v/v glycerol, blood frozen for 48 hours; for protection during freezing (hemolysis): measured against triton X and PBS. How it is done:
(§1) Experiments that measure the percent hemolysis of red blood cells before and after treatment were carried out using sheep blood.
This is data from blood frozen for 48 hours.
(§2) We measured absorption at three wavelengths (450 nm, 500 nm and 525 nm, shown in FIGS. 10, 11 and 12, respectively). […] That is why the error bars are smallest for those.

The nature of data set [2]: Differential scanning calorimetry of unilamellar DPPC vesicles with added sugar. The class given is physicochemical. The following applies: for cooperativity of the transition (peak width at half peak height, PWHH) / enthalpy of main phase transition / main phase transition temperature of DPPC liposomes: increasing mole ratio of sugar to lipid; for main phase transition temperature of DPPC liposomes: DSC 30-60 °C at 2 °C/min, DPPC alone ~42 °C. On the procedure: Methods: Unilamellar vesicles were prepared by extrusion. Sucrose or sucralose was added to the vesicles to achieve the desired mole ratio after vesicle formation. Differential scanning calorimetry was used to examine the main phase behavior of the liposome bilayer. Thermograms were obtained in the heating and cooling directions between 30° C. and 60° C. at a rate of 2° C./min.

Data set [3] relates to red blood cells. Put plainly: Percent hemolysis of red blood cells on addition of sucralose (no freezing). It is filed as cell-based, sheep. The following applies: measured against PBS buffer and triton X. How it is done: as §1, §2
The subject of a further data set is mouse myoblasts. Put plainly: Cytotoxicity of sucralose on nucleated cells. It is filed as cell-based. An excerpt:
Protection against hemolysis of red blood cells in the presence of increasing amounts of sucralose was examined at 3.5×(˜0.7 billion cells/ml) and 7×(˜1.4 billion cells/ml) the original red blood cell count, and are shown in FIGS. 15A and 15B, respectively. […] In addition, studies on the cytotoxicity of sucralose on nucleated cells, mouse myoblasts, indicate that sucralose concentrations in excess of about 2.5% w/v may have toxic effects.

Regarding `OC[C@H]1O[C@H](O[C@]2(CCl)O[C@H](CCl)[C@@H](O)[C@@H]2O)[C@H](O)[C@@H](O)[C@H]1Cl` [sucralose, 1,6-Dichloro-1,6-dideoxy-β-D-fructofuranosyl-4-chloro-4-deoxy-α-D-galactopyranoside], the “protective effect compared with 20% glycerol solution” value in the data set with red blood cells [1] is “better than using an equivalent volume of a 20% glycerol solution”; in the data set on red blood cells [1] (listed as sugar), “performs better than a 20% v/v solution of glycerol”. The “protection during freezing (hemolysis)” value is on record as “substantially reduces hemolysis” with red blood cells [1] (frozen and thawed); “protective effect” with red blood cells [1] (frozen and thawed, listed as sugar). For the same compound, in the data set on red blood cells [1] (frozen and thawed, ~0.7 and ~1.4 billion cells/ml), the “sucralose concentration resulting in decreased efficacy in protecting red blood cells from hemolysis” value is “above 2.5 % w/v”. Also, the “amount of sucralose required for cryopreservation of red blood cells” value in the data set with red blood cells [1] (red blood cell count about 0.2 to 1.4 billion cells/ml) was “increases with an increase of red blood cell concentration”. In addition, the “shoulders in thermograms (indicative of phase separation)” value (from here on “shoulders in thermograms”) in data set [2] (cooling cycle) is on record as “not seen”; in data set [2] (heating cycle), “a shoulder is seen in some thermograms”. Further, the “cooperativity of the transition (peak width at half peak height, PWHH)” value in data set [2] is “drastic decrease in cooperativity”. Further, the “enthalpy of main phase transition” value in data set [2] is reported as “remained essentially unchanged”. In addition, in data set [2], the “main phase transition temperature of DPPC liposomes” value is recorded as “decreased significantly”. Also, the “induction of hemolysis on addition” value with red blood cells [3] is recorded as “does not induce hemolysis”. In addition, in the data set on mouse myoblasts, the “sucralose concentration that may have toxic effects” value is given as “above 2.5 % w/v”.

As to `OC[C@H]1O[C@@](CO)(O[C@H]2O[C@H](CO)[C@@H](O)[C@H](O)[C@H]2O)[C@@H](O)[C@@H]1O` [sucrose], the “shoulders in thermograms” value in data set [2] (cooling cycle) is on record as “shoulders are again observed”. Also, the “shoulders in thermograms” value in data set [2] (heating cycle) was “shoulders appear”. Moreover, in data set [2], the “cooperativity of the transition (peak width at half peak height, PWHH)” value was “decrease in cooperativity”; the “enthalpy of main phase transition” value is listed as “remains relatively stable”; the “main phase transition temperature of DPPC liposomes” value is given as “little change”.
